Source: US12071443B2, “Prolyl hydroxylase domain-containing protein (PHD) inhibitors and uses thereof” (Insilico Medicine IP Limited, priority 2021, dated 2024)

Legend:
PHD2 = PHD2 (Homo sapiens, UniProt Q9GZT9); test: PHD2 enzymatic assay (AlphaScreen); type: biochemical; settings: PHD2 enzyme, AlphaScreen, IC50 from % inhibition; read-out: PHD2
[1] = test system: Caco2-HIF1α-HiBiT-clone-1 cells; test: Caco-2 HIF1α-HiBiT assay; type: cell-based; settings: Homo sapiens, Caco-2; Caco2-HIF1α-HiBiT-clone-1 cells, 6 h incubation, luminescence; read-out: Caco2-HIF1α-HiBit assay - EC50

PHD2, sequence (Q9GZT9 whole entry): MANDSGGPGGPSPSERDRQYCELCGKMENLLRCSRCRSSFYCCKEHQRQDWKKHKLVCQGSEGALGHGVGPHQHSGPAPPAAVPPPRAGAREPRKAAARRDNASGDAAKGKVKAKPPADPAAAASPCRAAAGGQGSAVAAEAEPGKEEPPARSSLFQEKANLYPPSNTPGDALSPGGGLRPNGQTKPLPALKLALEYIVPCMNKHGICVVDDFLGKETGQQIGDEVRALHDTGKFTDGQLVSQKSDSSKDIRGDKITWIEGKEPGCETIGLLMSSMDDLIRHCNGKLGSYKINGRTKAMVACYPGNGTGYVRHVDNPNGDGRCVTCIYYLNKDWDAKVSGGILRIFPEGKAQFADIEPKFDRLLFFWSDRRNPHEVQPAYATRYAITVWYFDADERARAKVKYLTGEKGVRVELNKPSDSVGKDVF

SMILES	IC50 (PHD2) [µM]	EC50 [1] [µM]
CP1(=O)CCN(c2ccc3c(O)c(C(=O)NCc4ccc(C#N)cc4Cl)ncc3n2)CC1 [Example 16]	< 0.005	10 to 100
N#Cc1ccc(CNC(=O)c2ncc3nc(N4CCN(C5CC5)[C@@H](CO)C4)ccc3c2O)c(Cl)c1 [Example 70]	0.005 to 0.02	2.5 to 5
CO[C@@H]1CCN(c2ccc3c(O)c(C(=O)NCc4ccc(C#N)nc4)ncc3n2)C1 [Example 27]	< 0.005	< 2.5
COC(=O)N1CCN(c2ccc3c(O)c(C(=O)NCc4ccc(C#N)nc4)ncc3n2)CC1 [Example 120]	< 0.005	10 to 100
N#Cc1ccc(CNC(=O)c2ncc3nc(N4CC(O)(CO)C4)ccc3c2O)cn1 [Example 119]	< 0.005	10 to 100
N#Cc1ccc(CNC(=O)c2ncc3nc(N4CC[C@H](N)C4)ccc3c2O)cn1 [Example 126, (S)-2-(3-aminopyrrolidin-1-yl)-N-((6-cyanopyridin-3-yl)methyl)-5-hydroxy-1,7-naphthyridine-6-carboxamide]	< 0.005	10 to 100
N#Cc1ccc(CNC(=O)c2ncc3nc(N4CCC(C(=O)OC5CC5)CC4)ccc3c2O)cn1 [Example 96]	< 0.005	10 to 100
COC(=O)C1(O)CN(c2ccc3c(O)c(C(=O)NCc4ccc(C#N)nc4)ncc3n2)C1 [Example 121]	< 0.005	7.5 to 10
COC(=O)C1CN(c2ccc3c(O)c(C(=O)NCc4ccc(C#N)nc4)ncc3n2)C1 [Example 84]	< 0.005	5 to 7.5
N#Cc1ccc(CNC(=O)c2ncc3nc(N4CC[C@H](C(=O)N5CCNCC5)C4)ccc3c2O)cn1 [Example 41, (S)—N-((6-cyanopyridin-3-yl)methyl)-5-hydroxy-2-(3-(piperazine-1-carbonyl)pyrrolidin-1-yl)-1,7-naphthyridine-6-carboxamide]	< 0.005	10 to 100
CN1CCN(c2ccc3c(O)c(C(=O)NCc4ccc(C#N)nc4)ncc3n2)C[C@@H]1CO [Example 45, (R)—N-((6-cyanopyridin-3-yl)methyl)-5-hydroxy-2-(3-(hydroxymethyl)-4-methylpiperazin-1-yl)-1,7-naphthyridine-6-carboxamide]	< 0.005	10 to 100
CC(C)(C)OC(=O)N1CCN(c2ccc3c(O)c(C(=O)NCc4ccc(C#N)nc4)ncc3n2)C(=O)C1 [Example 101]	< 0.005	2.5 to 5
CC(C)(C)OC(=O)N[C@H]1CCN(c2ccc3c(O)c(C(=O)NCc4ccc(C#N)nc4)ncc3n2)C1 [Example 125]	< 0.005	< 2.5
N#Cc1ccc(CNC(=O)c2ncc3nc(N4CCN(C(=O)CCO)CC4)ccc3c2O)cn1 [Example 72, N-((6-cyanopyridin-3-yl)methyl)-5-hydroxy-2-(4-(3-hydroxypropanoyl)piperazin-1-yl)-1,7-naphthyridine-6-carboxamide]	< 0.005	5 to 7.5
C[C@@H]1CN(c2ccc3c(O)c(C(=O)NCc4ccc(C#N)nc4)ncc3n2)CCN1C(=O)OC(C)(C)C [Example 149]	< 0.005	2.5 to 5
N#Cc1ccc(CNC(=O)c2ncc3nc(N4CC[C@@H](CO)C4)ccc3c2O)cn1 [Example 42]	< 0.005	2.5 to 5
N#Cc1ccc(CNC(=O)c2ncc3nc(N4CCNCC4)ccc3c2O)c(Cl)c1 [Example 5, N-(2-chloro-4-cyanobenzyl)-5-hydroxy-2-(piperazin-1-yl)-1,7-naphthyridine-6-carboxamide]	0.005 to 0.02	7.5 to 10
COCCOC(=O)C1CCN(c2ccc3c(O)c(C(=O)NCc4ccc(C#N)nc4)ncc3n2)CC1 [Example 86]	< 0.005	10 to 100
CN1CCN(c2ccc3c(O)c(C(=O)NCc4ccc(C#N)nc4)ncc3n2)CC1=O [Example 66]	< 0.005	10 to 100

SMILES	IC50 (PHD2) [µM]	EC50 [1] [µM]
COC(=O)[C@H]1CN(c2ccc3c(O)c(C(=O)NCc4ccc(C#N)nc4)ncc3n2)CCO1 [Example 92]	< 0.005	5 to 7.5
N#Cc1ccc(CNC(=O)c2ncc3nc(N4CCC(N)CC4)ccc3c2O)cn1 [Example 124, 2-(4-aminopiperidin-1-yl)-N-((6-cyanopyridin-3-yl)methyl)-5-hydroxy-1,7-naphthyridine-6-carboxamide]	< 0.005	10 to 100
N#Cc1ccc(CNC(=O)c2ncc3nc(N4CC(N)C4)ccc3c2O)cn1 [Example 128, 2-(3-aminoazetidin-1-yl)-N-((6-cyanopyridin-3-yl)methyl)-5-hydroxy-1,7-naphthyridine-6-carboxamide]	0.02 to 0.1	5 to 7.5
COC(=O)[C@H]1CN(c2ccc3c(O)c(C(=O)NCc4ccc(C#N)nc4)ncc3n2)CCN1 [Example 50, methyl (R)-4-(6-(((6-cyanopyridin-3-yl)methyl)carbamoyl)-5-hydroxy-1,7-naphthyridin-2-yl)piperazine-2-carboxylate]	< 0.005	10 to 100
CC(C)(C)OC(=O)N[C@H]1CC(=O)N(c2ccc3c(O)c(C(=O)NCc4ccc(C#N)nc4)ncc3n2)C1 [Example 143]	< 0.005	< 2.5
CC(C)(C)OC(=O)NC1CCN(c2ccc3c(O)c(C(=O)NCc4ccc(C#N)nc4)ncc3n2)CC1 [Example 123]	< 0.005	2.5 to 5
CC(C)(C)OC(=O)N[C@@H]1CN(c2ccc3c(O)c(C(=O)NCc4ccc(C#N)nc4)ncc3n2)C[C@@H]1F [Example 142]	0.005 to 0.02	2.5 to 5
N#Cc1ccc(CNC(=O)c2ncc3nc(N4CCOCC4=O)ccc3c2O)cn1 [Example 100]	0.005 to 0.02	7.5 to 10
CC(C)(C)OC(=O)N[C@@H]1CCN(c2ccc3c(O)c(C(=O)NCc4ccc(C#N)nc4)ncc3n2)C1 [Example 140]	0.005 to 0.02	2.5 to 5
CC(=O)N1CCN(c2ccc3c(O)c(C(=O)NCc4ccc(C#N)cc4Cl)ncc3n2)C[C@@H]1CO [Example 63, (R)-2-(4-acetyl-3-(hydroxymethyl)piperazin-1-yl)-N-(2-chloro-4-cyanobenzyl)-5-hydroxy-1,7-naphthyridine-6-carboxamide]	0.005 to 0.02	7.5 to 10
N#Cc1ncc(CNC(=O)c2ncc3nc(N4CCOCC4)ccc3c2O)cn1 [Example 23]	< 0.005	5 to 7.5
C[C@@H](NC(=O)c1ncc2nc(N3CCOCC3)ccc2c1O)c1ccc(C#N)cc1 [Example 18]	0.005 to 0.02	5 to 7.5
CN1CCN(c2ccc3c(O)c(C(=O)NCc4ccc(C#N)cc4Cl)ncc3n2)CC1=O [Example 19]	0.005 to 0.02	10 to 100
N#Cc1ccc(CNC(=O)c2ncc3nc(N4CCOC(=O)C4)ccc3c2O)cn1 [Example 85, N-((6-cyanopyridin-3-yl)methyl)-5-hydroxy-2-(2-oxomorpholino)-1,7-naphthyridine-6-carboxamide]	< 0.005	10 to 100
CC(C)(C)OC(=O)NC1CCN(c2ccc3c(O)c(C(=O)NCc4ccc(C#N)nc4)ncc3n2)C1=O (centres unmarked) [Example 144]	0.005 to 0.02	2.5 to 5
COC(=O)CC1CN(c2ccc3c(O)c(C(=O)NCc4ccc(C#N)nc4)ncc3n2)C1 [Example 152]	< 0.005	2.5 to 5
CCOC(=O)C1CCN(c2ccc3c(O)c(C(=O)NCc4ccc(C#N)nc4)ncc3n2)CC1 [Example 94]	< 0.005	7.5 to 10
CC(C)OC(=O)C1CCN(c2ccc3c(O)c(C(=O)NCc4ccc(C#N)nc4)ncc3n2)CC1 [Example 95]	< 0.005	10 to 100
